Measured values: PubChem BioAssay AID1996
≈ marks a conversion by molar mass, not a printed value.

Details: buffer; pH 7.4; 200.0 µM

SMILES | solubility kinetic [µg/mL]
Cc1ccc(NC(=O)CNC(=O)c2cccs2)c(O)c1 | 21.7 (≈ 74.7 µM)
Cc1cccc(/C(N)=N/OC(=O)c2ccncc2)c1 | 29.1 (≈ 114 µM)
Cc1nc(NC(=O)CSC2=NCCS2)sc1C(=O)N(C)C | > 51.7
Cc1ccc(NC2=C(Cl)C(=O)OC2OC(=O)c2ccc(C)cc2)cc1 (stereo unspecified) | 2.6 (≈ 7.27 µM)
O=C(Nc1nc2ccc(Br)cc2s1)c1ccco1 | < 0.3
O=C1C2C3C=CC(C3)C2C(=O)N1Nc1ccccc1 (stereo unspecified) | > 38.1
O=C(CN1C(=O)NC2(CCCCC2)C1=O)Nc1ccc(Cl)cc1 | 11.3 (≈ 33.7 µM)
CCOc1ccc2[nH]c3ncccc3c(=O)c2c1 | 3.7 (≈ 15.4 µM)
Cc1cccc(C)c1NC(=O)c1cnn(-c2ccccc2)c1C | > 45.8
O=C(CSC(=S)N1CCCC1)Nc1cc2c(cc1Br)OCCO2 | < 0.4
CCS(=O)(=O)c1c(S(=O)(=O)CC)c2ccccn2c1C(N)=O | > 51.7
CC(NC(=O)CCCC1CCCCC1)c1ccc(S(N)(=O)=O)cc1 (stereo unspecified) | > 52.9
NC(=O)CN1C(=O)NC2(CCCc3sccc32)C1=O (stereo unspecified) | > 41.9
CN(CC(=O)N(C)CC(=O)Nc1c(Cl)cccc1Cl)Cc1ccccc1F | > 61.8
Cc1ccc(NC(=S)NC2CCSc3ccccc32)cc1C (stereo unspecified) | < 0.4
O=C(Nc1ccccc1)Nc1cccc2nsnc12 | 5.7 (≈ 21.1 µM)
COc1cccc2[nH]c(C(=O)NCC3CCCO3)cc12 (stereo unspecified) | > 41.1
O=C(CSc1nnc(Nc2ccccc2F)s1)NC1CCS(=O)(=O)C1 (stereo unspecified) | > 60.4
CC1=C(C#N)C(c2ccc(O)cc2)C(C#N)=C(C)N1 | > 37.7
O=C1CSC(=Nc2ccc(O)cc2)N1 | > 31.2
Nc1c(C(=O)N2CCCCC2)sc2nc3c(cc12)CCCC3 | 41.7 (≈ 132 µM)
CSc1ccccc1C(=O)Nc1ccccc1C(=O)NC(C)C | > 49.3

SMILES | solubility kinetic [µg/mL]
C#CCn1cnc2c(oc3ccccc32)c1=O | > 33.6
COc1ccc(Br)cc1CN1CCSCC1 | 29.3 (≈ 96.9 µM)
CCOc1ccc(C(c2c(O)nc(SC)[nH]c2=O)c2c(O)nc(SC)[nH]c2=O)cc1 | > 67.3
O=C1c2cccc3c([N+](=O)[O-])ccc(c23)C(=O)N1CCc1ccccn1 | 0.4 (≈ 1.15 µM)
CC(=O)Nc1ccc(C(F)(F)F)cc1Cl | 23.1 (≈ 97.2 µM)
O=C(CSc1nccc(=O)[nH]1)NC1CCCC1 | 36 (≈ 142 µM)
CN(CCO)c1nc(N)c2c(N)nc3c(c2c1C#N)CC(=O)N3C1CCCC1 | 10.7 (≈ 28.1 µM)
O=C(O)CN1C(=O)CSC1=S | > 28.7
COCCNC(=S)N(c1ccccc1)C(C)C | > 37.9
Cn1c(=O)[nH]c(=O)c2c1nc(N)n2Cc1ccccc1 | > 40.7
O=C1CCCN1C(=O)CSc1ncnc2sccc12 | > 44
Cn1c(C2CCCCC2)nc2c1c(=O)[nH]c(=O)n2Cc1ccccc1 | 16.7 (≈ 49.3 µM)
COc1ccc(C(=O)OCC(=O)NC2CCCC2)cc1OC | > 46.1
COc1ccc(COc2cccc3ccc(C)nc23)cc1F | 5.2 (≈ 17.5 µM)
CCCSc1nsc(NC(=O)c2cccnc2OCC)n1 | 0.5 (≈ 1.54 µM)
COc1ccc(NC(=O)Nc2c(C)noc2-c2ccccc2)cc1 | 7.5 (≈ 23.2 µM)
O=C(O)c1cccc(NC2=C(N3CCOCC3)C(=O)c3ccccc3C2=O)c1 | > 56.8
CCOC(=O)c1c(C)nc(C(Cl)(Cl)Cl)nc1N | 21.7 (≈ 72.7 µM)
CCCCNC1c2ccccc2C(=O)N1Cc1ccccc1.Cl (stereo unspecified) | 47.5
O=C(CSc1ccccc1C(=O)O)NC12CC3CC(CC(C3)C1)C2 | > 51.8
N#C/C(=C\c1c[nH]c2ccccc12)C(=O)NC1CCCC1 | 1.8 (≈ 6.44 µM)
COC(=O)c1c(-c2cccc(C)c2)csc1NC(=O)C1CCCO1 (stereo unspecified) | 11.1 (≈ 32.1 µM)

SMILES | solubility kinetic [µg/mL]
Cc1cccc(C(=O)OCC(=O)N2CCc3ccccc3C2)c1O | 6.8 (≈ 20.9 µM)
Cn1c(=O)n(Cc2ccccc2)c(=O)c2c1nc1n2CCN1Cc1ccco1 | 51.8 (≈ 137 µM)
CC(C)c1nc(SCC(=O)NC(=O)NC(C)(C)C)n[nH]1 | > 44.9
COC(=O)c1cn(Cc2cc(OC)ccc2OC)cc(F)c1=O | > 48.2
COc1ccc(-c2noc(CN(Cc3nccn3C)C(C)C)n2)cc1 | 45.6 (≈ 134 µM)
Cc1ccccc1C(=O)Nc1cccc(NC(=O)c2cccnc2)c1 | 45.8 (≈ 138 µM)
COc1ccc(CNC(=O)CN2C(=O)NC3(CCCCCC3)C2=O)cc1 | > 53.9
COc1cccc(C(=O)NCC(=O)N/N=C/c2cccnc2)c1 | > 46.8
C=CCNC(=S)Nc1cccc(N)c1 | > 31.1
O=C(CCN1C(=O)c2cccc([N+](=O)[O-])c2C1=O)NC1CCCCCC1 | > 53.9
O=C1[C@@H]2[C@H]3CC[C@H](C3)[C@@H]2C(=O)N1O | 27 (≈ 149 µM)
COc1ccnc2c1c(=O)n(Cc1cccc(Cl)c1)c(=O)n2C | 9.8 (≈ 29.5 µM)
O=C(NCc1ccccn1)Nc1ccc(F)cc1F | > 39.5
Cc1ccc(NC(=O)C2CC2c2ccccc2)c([N+](=O)[O-])c1 (stereo unspecified) | 3.5 (≈ 11.8 µM)
CCOc1ccc(N2C(=O)C3CCCN3C2=S)cc1 (stereo unspecified) | > 41.5
COc1ccc(N(CC(=O)Nc2cccnc2)S(C)(=O)=O)cc1 | > 50.3
O=S(=O)([O-])CCC[n+]1ccc(Oc2ccccc2)cc1 | 21 (≈ 71.6 µM)
Cc1cccc(N2CCN(C(=O)NCc3ccc(F)cc3)CC2)c1C | 3.2 (≈ 9.37 µM)
COc1ccccc1OCc1ccc(C(=O)NC(C)c2ccccc2)o1 (stereo unspecified) | 38.1 (≈ 108 µM)
O=C(Nc1nccs1)c1ccc[nH]c1=O | > 33.2
COc1ccc(NC(=O)CN2CCc3ccccc3C2)c(OC)c1 | 34.1 (≈ 104 µM)
C/C(=N/OC(=O)C1CC1c1ccccc1)c1ccccc1 (stereo unspecified) | 3.6 (≈ 12.9 µM)

SMILES | solubility kinetic [µg/mL]
OC(CNCc1ccccc1Cl)C(F)(F)F (stereo unspecified) | 34.1 (≈ 134 µM)
Cc1cc(C=C2C(=O)N(C)C(=S)N(C)C2=O)c(C)n1-c1cccnc1 | 13.9 (≈ 39.2 µM)
COC(=O)Nc1ccc(S(=O)(=O)N2CCCC(C(=O)O)C2)cc1 (stereo unspecified) | 50.4 (≈ 147 µM)
Cc1ccc(SCC(=O)NC2CC2)cc1 | > 33.2
COCCn1cnc2c1c(=O)n(CC(=O)NCC(F)(F)F)c(=O)n2Cc1ccccc1 | 39.9 (≈ 90.8 µM)
CC(C)(C)C(=O)Nc1ccc(C(=O)COC(=O)c2ccccn2)cc1 | 50.2 (≈ 147 µM)
Cc1ccc(-c2nc3ccccc3[nH]c2=O)cc1 | 1 (≈ 4.23 µM)
CN(C)CCOc1cccc(Br)c1.O=C(O)C(=O)O | 44.6
COc1cccc(CNC(=O)c2cccnc2Sc2ccccc2)c1 | 5.6 (≈ 16 µM)
CN1C(=O)N(C)C(c2ccccc2Cl)C2=C1CC(C)(C)CC2=O (stereo unspecified) | > 49.9
Cc1ccc(C)c(OCc2cc(C(=O)N3CCOCC3)no2)c1 | 42.1 (≈ 133 µM)
CC1SCC(=O)N(CC(=O)NCCc2ccccc2)C1=O (stereo unspecified) | > 46
CN(C)C(=O)C[n+]1ccc(C(N)=O)cc1.[Cl-] | 35.4
Cc1c(O)c2ccccc2n(-c2ccccc2)c1=O | > 37.7
O=C(Nc1cccc2ncccc12)C(c1ccccc1)c1ccccc1 | < 0.4
OCCCc1cn(-c2ccccc2)c2ccccc12 | 22.1 (≈ 87.9 µM)
Cc1ccc2nc(Nc3ncc4c(n3)CC(C)(C)CC4=O)nc(C)c2c1 | 10.5 (≈ 30.2 µM)
O=C(NC1CCSc2ccccc21)c1ccccc1F (stereo unspecified) | 12.4 (≈ 43.2 µM)
COc1ccc(S(=O)(=O)N2CCCCC2)cc1NC(=O)COC(=O)c1ccco1 | 5.8 (≈ 13.7 µM)
COc1cccc(Cn2c(=O)oc3ccccc32)c1 | 25 (≈ 97.9 µM)
